Test results taken from ChEMBL document CHEMBL1131758, “5-fluoro-2-methyl-N-[5-(5H-pyrrolo[2,1-c][1,4]benzodiazepine-10(11H)-yl carbonyl)-2-pyridinyl]benzamide (CL-385004) and analogs as orally active arginine vasopressin receptor antagonists” (Bioorg Med Chem Lett, 1999).

Columns and labels:
Rattus norvegicus [1] = experiment: Amount of urine output was measured in rat at a dose of 10 mg/kg/po; format: ADME, organism-based; settings: in vivo
Vasopressin V2 receptor [2] = molecular target: T1, Vasopressin V2 receptor (Rattus norvegicus, UniProt Q00788); experiment: Displacement of P[3H]-AVP from isolated rat kidney medullary V2 receptor
Vasopressin V1a receptor [3] = molecular target: T2, Vasopressin V1a receptor (Rattus norvegicus, UniProt P30560); experiment: Displacement of (Phe-3,4,5 [3H]-) AVP from isolated rat hepatic V1a receptor
[4] = molecular target: Vasopressin V1a receptor (Rattus norvegicus) (UniProt P30560); experiment: In vitro inhibition of (Phe-3,4,5 [3H]-) AVP binding towards isolated rat hepatic V1a receptor at a dose of 10 uM
Vasopressin V2 receptor [5] = molecular target: T1, Vasopressin V2 receptor; experiment: In vitro inhibition of (P[3H]-AVP binding towards isolated rat kidney medullary Vasopre ssin V2 receptor
Vasopressin V1a receptor [6] = molecular target: T2, Vasopressin V1a receptor; experiment: In vitro inhibition of (Phe-3,4,5 [3H]-) AVP binding towards isolated rat hepatic Vasopressin V1a receptor
Rattus norvegicus [7] = experiment: Amount of urine output was measured in rat at a dose of 1 mg/kg/po; format: ADME, organism-based; settings: in vivo
[8] = molecular target: Vasopressin V2 receptor (Rattus norvegicus) (UniProt Q00788); experiment: In vitro inhibition of (P[3H]-AVP binding towards isolated rat kidney medullary V2 receptor at a dose of 10 uM
Chain of Vasopressin V2 receptor (Rattus norvegicus) (Q00788 whole entry): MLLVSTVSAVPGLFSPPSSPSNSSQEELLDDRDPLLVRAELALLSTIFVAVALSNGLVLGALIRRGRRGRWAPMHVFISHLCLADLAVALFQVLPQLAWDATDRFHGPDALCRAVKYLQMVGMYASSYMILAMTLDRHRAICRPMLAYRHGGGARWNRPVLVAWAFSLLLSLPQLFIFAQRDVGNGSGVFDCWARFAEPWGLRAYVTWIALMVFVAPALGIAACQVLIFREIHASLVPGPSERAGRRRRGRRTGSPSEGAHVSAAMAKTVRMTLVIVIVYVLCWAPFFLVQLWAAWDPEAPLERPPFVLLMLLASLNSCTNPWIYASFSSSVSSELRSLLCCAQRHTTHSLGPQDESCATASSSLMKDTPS

T1 sequence (Q00788 whole entry): as above
Chain of Vasopressin V1a receptor (Rattus norvegicus) (P30560 whole entry, looked up): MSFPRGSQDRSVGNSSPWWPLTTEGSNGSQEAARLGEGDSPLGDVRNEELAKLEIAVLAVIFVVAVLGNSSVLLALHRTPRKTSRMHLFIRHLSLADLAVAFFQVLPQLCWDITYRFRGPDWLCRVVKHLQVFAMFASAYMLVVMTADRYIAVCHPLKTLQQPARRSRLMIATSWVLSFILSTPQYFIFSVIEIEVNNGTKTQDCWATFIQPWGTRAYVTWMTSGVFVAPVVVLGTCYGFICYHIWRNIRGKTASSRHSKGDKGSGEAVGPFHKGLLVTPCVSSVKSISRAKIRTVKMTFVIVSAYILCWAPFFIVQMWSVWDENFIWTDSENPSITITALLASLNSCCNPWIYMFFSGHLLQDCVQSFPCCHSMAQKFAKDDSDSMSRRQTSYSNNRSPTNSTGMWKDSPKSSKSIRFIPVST
T2 sequence (P30560 whole entry): as the sequence (P30560 whole entry, looked up) above

| Urine volume (Rattus norvegicus [1]) [ml 4hr-1] | IC50 (Vasopressin V2 receptor [2]) [nM] | IC50 (Vasopressin V1a receptor [3]) [nM] | Structure (SMILES) | also measured |
| --- | --- | --- | --- | --- |
| 15.8 | 4 | 40 | O=C(Nc1ccc(C(=O)N2Cc3cccn3Cc3ccccc32)cn1)c1c(F)cccc1Cl |  |
| 34 |  | 9 | Cc1c(F)cccc1C(=O)Nc1ccc(C(=O)N2Cc3cccn3Cc3ccccc32)cn1 |  |
|  | 210 |  | Nc1ccccc1C(=O)Nc1ccc(C(=O)N2Cc3cccn3Cc3ccccc32)cn1 | inhibition [4]: 29% |
|  | 290 |  | Cc1ccc(F)cc1C(=O)N(CCCN(C)C)c1ccc(C(=O)N2Cc3cccn3Cc3ccccc32)cn1 | inhibition [4]: 68% |
| 5.3 |  |  | Cc1ccccc1C(=O)Nc1ccc(C(=O)N2Cc3cccn3Cc3ccccc32)cn1 | IC50 (Vasopressin V2 receptor [5]): 3 nM; IC50 (Vasopressin V1a receptor [6]): 21 nM |
| 11.8 | 240 | 310 | O=C(Nc1ccc(C(=O)N2Cc3cccn3Cc3ccccc32)cn1)c1cc(F)ccc1F |  |
| 16.5 | 7.3 | 82 | O=C(Nc1ccc(C(=O)N2Cc3cccn3Cc3ccccc32)cn1)c1cc(Br)ccc1Cl |  |
| 30.5 |  |  | O=C(Nc1ccc(C(=O)N2Cc3cccn3Cc3ccccc32)cn1)c1ccc(F)cc1Cl |  |
|  | 160 | 920 | O=C(Nc1ccc(C(=O)N2Cc3cccn3Cc3ccccc32)cn1)c1ccccc1[N+](=O)[O-] |  |
| 12.5 | 33 | 99 | Cc1ccc(F)cc1C(=O)Nc1ccc(C(=O)N2Cc3ccc(CN(C)C)n3Cc3ccccc32)cn1 |  |
| 19.3 | 4.3 | 100 | O=C(Nc1ccc(C(=O)N2Cc3cccn3Cc3ccccc32)cn1)c1cc(Cl)ccc1Cl |  |
|  |  |  | Cc1ccc(F)cc1C(=O)Nc1ccc(C(=O)N2Cc3cccn3Cc3ccccc32)cn1 | Urine volume (Rattus norvegicus [7]): 20 ml 4hr-1 |
|  | 480 | 260 | O=C(Nc1ccc(C(=O)N2Cc3cccn3Cc3ccccc32)cn1)c1cc(-c2ccccn2)ccc1Cl |  |
| 16.5 | 8.3 | 30 | O=C(Nc1ccc(C(=O)N2Cc3cccn3Cc3ccccc32)cn1)c1ccccc1-c1ccccc1 |  |
| 4 |  |  | O=C(Nc1ccc(C(=O)N2Cc3cccn3Cc3ccccc32)cn1)c1ccccc1Cl |  |
|  |  |  | COc1cc(C(=O)Nc2ccc(C(=O)N3Cc4cccn4Cc4ccccc43)cn2)cc(OC)c1OC | inhibition [8]: 41%; inhibition [4]: 51% |
| 35 | 0.5 | 82 | Cc1ccc(F)cc1C(=O)Nc1ccc(C(=O)N2Cc3cccn3Cc3ccccc32)c(Cl)c1 [LIXIVAPTAN] |  |
|  |  |  | O=C(Nc1ccc(C(=O)N2Cc3cccn3Cc3ccccc32)cn1)c1ccc(F)cc1F | inhibition [8]: 58%; inhibition [4]: 37% |
